What was measured:
[1] = test system: Ba/F3-EML4-ALK-G1202R/L1196M; test: Anti-proliferative activity test on Ba/F3 cell lines (CellTiter-Glo); assay type: cell-based; conditions: Ba/F3 EML4-ALK-G1202R-L1196M; 72 hours; read-out: Half maximal inhibitory concentration IC50 for cells Ba/F3-EML4-ALK-G1202R/L1196 M
Procedure, shortened: (§1)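 Cells (2000/well) were exposed for 72 h at 37°C, 5% CO2, to an 8-point 3-fold series (1000× plate starting at 1 µM), with 0.1% DMSO final. Viability was read by CellTiter-Glo luminescence. Inhibition was normalised to DMSO (Max) and cell-free (Min) controls, and IC50 was taken from the curves.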

Ba/F3-TEL-TRKB = test: as above; assay type: cell-based; conditions: Mus musculus, BaF3; 72 hours; read-out: Half maximal inhibitory concentration IC50 for cells Ba/F3-TEL-TRKB
Procedure, shortened: as §1

Cc1nn2cc3c4nc2c1C(=O)NC1(CC1)COc1ccc(F)cc1CN4[C@H](C(F)F)CO3 [Compound 016]
IC50 [1]: 12.5 nM
IC50 (Ba/F3-TEL-TRKB): 0.6 nM

Reference: patent EP4559919A1, “TRICYCLIC-CONTAINING MACROCYCLIC COMPOUND AND USE THEREOF” (Medshine Discovery Inc., priority 2022, dated 2024)
